One test relates to wild-type DIO mice. The test is described as follows: Diet-induced obesity study, daily intraperitoneal injections. Type of test: in vivo, mouse. As for the experimental part:
(§1) Animals were housed at a 12 hours dark/light cycle, temperature and humidity controlled rooms. Mice were purchased from the Jackson LABoratory, except the HDAC6 global knockout (KO) mice, which were provided by Dr. Timothy A. Mckinsey (University of Colorado Anschutz Medical Campus, Aurora, CO, USA.). Mice were fed either regular chow or high fat diet (60 kcal % fat, Research Diets) to induce obesity (diet-induced obesity) and had free access to food and water unless specified. Body composition was analyzed with Bruker's minispec LF50 Body Composition Analyzer. Blood glucose was measured from tail vein by Contour blood glucose monitor system (Bayer). TubA (25 mg/kg body weight) or SE-7552 (50 mg/kg body weight) were administered within 1 hr before dark cycle daily by intraperitoneal (ip.) injections. For intraperitoneal injections, drugs or vehicle was injected at 25 uL volumes per animal. Mice and their food were measured daily or weekly to track body weight and food intake. Hematoxylin and eosin (H&E) staining of liver sections of diet-induced obese mice were done after one month of vehicle or TubA injections.

For another test, the system named is db/db mice. The experiment in a line: Body weight study in db/db mice. The settings on record: SE-7552 50 mg/kg, i.p., daily. Type of test: in vivo, mouse. Here is the method:
as §1

In test [1] the test system is HDAC6 versus all other known HDAC isozymes. As to conditions: cited from earlier work.

`CC(Nc1ncc(-c2nnc(C(F)F)o2)cn1)c1ccc(F)cc1` (stereo not shown) [SE7552]: the “obesity (body weight change, FIG. 1e)” value with wild-type DIO mice (SE-7552 50 mg/kg, i.p., daily) is recorded as “effectively reduces obesity”. In addition, in the test on db/db mice, the “weight loss (body weight change, FIG. 1f)” value is on record as “ineffective at inducing weight loss”. The “selectivity versus all other known HDAC isozymes” value in test [1] was “About 1000 fold”.
Take `CN1CCc2c(c3ccccc3n2Cc2ccc(C(=O)NO)cc2)C1` [Tubastatin A]: the “diet-induced obesity (FIG. 2)” value in the test with wild-type DIO mice (Tubastatin 25 mg/kg, daily i.p.) was “Reverses Diet-Induced Obesity”.

These data come from US20250263412A1, “NON-HYDROXAMATE HDAC6 INHIBITORS AND RELATED METHODS OF USE” (The Regents of the University of Michigan, priority 2021, published 2025).
